Data taken from ChEMBL document CHEMBL3608294, “Epoxylathyrol Derivatives: Modulation of ABCB1-Mediated Multidrug Resistance in Human Colon Adenocarcinoma and Mouse T-Lymphoma Cells” (J Nat Prod, 2015).

Columns and labels:
[1] = Cytotoxicity against multidrug resistant human COLO320 cells incubated for 24 hrs by MTT assay; type: functional, cell-based; conditions: COLO 320, 24 h
[2] = biological target: T1, ATP-dependent translocase ABCB1 (Homo sapiens, UniProt P08183); assay: Inhibition of human ABCB1 expressed in mouse L5178Y cells assessed as fluorescence activity ratio at 2 uM incubated for 10 mins by flow cytometry based rhodamine-123 accumulation assay (reference value: 0.78); type: cell-based
[3] = biological target: T1, ATP-dependent translocase ABCB1; assay: Inhibition of ABCB1 in multidrug resistant human COLO320 cells assessed as fluorescence activity ratio at 2 uM incubated for 10 mins by flow cytometry based rhodamine-123 accumulation assay (reference value: 0.62)
[4] = test system: L5178Y; assay: Antiproliferative activity against chemosensitive wild type parental mouse L5178Y cells incubated for 72 hrs by MTT assay; type: functional, cell-based
[5] = Antiproliferative activity against multidrug resistant human COLO320 cells incubated for 72 hrs by MTT assay; type: functional; conditions: COLO 320, 72 h
[6] = biological target: T1, ATP-dependent translocase ABCB1; assay: Inhibition of human ABCB1 expressed in mouse L5178Y cells assessed as fluorescence activity ratio at 20 uM incubated for 10 mins by flow cytometry based rhodamine-123 accumulation assay (reference value: 0.78); type: cell-based
[7] = test system: L5178Y; assay: Cytotoxicity against chemosensitive wild type parental mouse L5178Y cells incubated for 24 hrs by MTT assay; type: functional, cell-based
[8] = Antiproliferative activity against chemosensitive human COLO205 cells incubated for 72 hrs by MTT assay; type: functional, cell-based; conditions: COLO 205, 72 h
[9] = test system: L5178Y; assay: Cytotoxicity against human ABCB1 expressing mouse L5178Y cells incubated for 24 hrs by MTT assay; type: functional, cell-based
[10] = biological target: T1, ATP-dependent translocase ABCB1; assay: Inhibition of ABCB1 in multidrug resistant human COLO320 cells assessed as fluorescence activity ratio at 20 uM incubated for 10 mins by flow cytometry based rhodamine-123 accumulation assay (reference value: 0.62)
[11] = test system: COLO 205; assay: Cytotoxicity against chemosensitive human COLO205 cells incubated for 24 hrs by MTT assay; type: functional, cell-based; conditions: COLO 205, 24 h
[12] = test system: L5178Y; assay: Antiproliferative activity against human ABCB1 expressing mouse L5178Y cells incubated for 72 hrs by MTT assay; type: functional, cell-based
[13] = test system: L5178Y; assay: Selectivity index, ratio of antiproliferative IC50 for wild type parental mouse L5178Y cells to antiproliferative IC50 for human ABCB1 expressing mouse L5178Y cells; type: functional
[14] = biological target: T1, ATP-dependent translocase ABCB1; assay: Inhibition of human ABCB1 expressed in mouse L5178Y cells assessed as potentiation of 2 mg/ml doxorubicin-induced cytotoxicty by measuring combination index at 5:1 compound to doxorubicin ratio incubated for 48 hrs by MTT assay; type: cell-based
[15] = Selectivity index, ratio of antiproliferative IC50 for chemosensitive human COLO205 cells to antiproliferative IC50 for multidrug resistant human COLO320 cells; type: functional, COLO 205
[16] = test system: L5178Y; assay: Selectivity index, ratio of cytotoxic IC50 for wild type parental mouse L5178Y cells to cytotoxic IC50 for human ABCB1 expressing mouse L5178Y cells; type: functional
[17] = biological target: T1, ATP-dependent translocase ABCB1; assay: Inhibition of ABCB1 in multidrug resistant human COLO320 cells assessed as fluorescence activity ratio at 0.2 uM incubated for 10 mins by flow cytometry based rhodamine-123 accumulation assay (reference value: 0.62)
[18] = biological target: T1, ATP-dependent translocase ABCB1; assay: Inhibition of human ABCB1 expressed in mouse L5178Y cells assessed as fluorescence activity ratio at 0.2 uM incubated for 10 mins by flow cytometry based rhodamine-123 accumulation assay (reference value: 0.78); type: cell-based
[19] = Selectivity index, ratio of cytotoxic IC50 for chemosensitive human COLO205 cells to cytotoxic IC50 for multidrug resistant human COLO320 cells; type: functional, COLO 205

T1 sequence (P08183 whole entry): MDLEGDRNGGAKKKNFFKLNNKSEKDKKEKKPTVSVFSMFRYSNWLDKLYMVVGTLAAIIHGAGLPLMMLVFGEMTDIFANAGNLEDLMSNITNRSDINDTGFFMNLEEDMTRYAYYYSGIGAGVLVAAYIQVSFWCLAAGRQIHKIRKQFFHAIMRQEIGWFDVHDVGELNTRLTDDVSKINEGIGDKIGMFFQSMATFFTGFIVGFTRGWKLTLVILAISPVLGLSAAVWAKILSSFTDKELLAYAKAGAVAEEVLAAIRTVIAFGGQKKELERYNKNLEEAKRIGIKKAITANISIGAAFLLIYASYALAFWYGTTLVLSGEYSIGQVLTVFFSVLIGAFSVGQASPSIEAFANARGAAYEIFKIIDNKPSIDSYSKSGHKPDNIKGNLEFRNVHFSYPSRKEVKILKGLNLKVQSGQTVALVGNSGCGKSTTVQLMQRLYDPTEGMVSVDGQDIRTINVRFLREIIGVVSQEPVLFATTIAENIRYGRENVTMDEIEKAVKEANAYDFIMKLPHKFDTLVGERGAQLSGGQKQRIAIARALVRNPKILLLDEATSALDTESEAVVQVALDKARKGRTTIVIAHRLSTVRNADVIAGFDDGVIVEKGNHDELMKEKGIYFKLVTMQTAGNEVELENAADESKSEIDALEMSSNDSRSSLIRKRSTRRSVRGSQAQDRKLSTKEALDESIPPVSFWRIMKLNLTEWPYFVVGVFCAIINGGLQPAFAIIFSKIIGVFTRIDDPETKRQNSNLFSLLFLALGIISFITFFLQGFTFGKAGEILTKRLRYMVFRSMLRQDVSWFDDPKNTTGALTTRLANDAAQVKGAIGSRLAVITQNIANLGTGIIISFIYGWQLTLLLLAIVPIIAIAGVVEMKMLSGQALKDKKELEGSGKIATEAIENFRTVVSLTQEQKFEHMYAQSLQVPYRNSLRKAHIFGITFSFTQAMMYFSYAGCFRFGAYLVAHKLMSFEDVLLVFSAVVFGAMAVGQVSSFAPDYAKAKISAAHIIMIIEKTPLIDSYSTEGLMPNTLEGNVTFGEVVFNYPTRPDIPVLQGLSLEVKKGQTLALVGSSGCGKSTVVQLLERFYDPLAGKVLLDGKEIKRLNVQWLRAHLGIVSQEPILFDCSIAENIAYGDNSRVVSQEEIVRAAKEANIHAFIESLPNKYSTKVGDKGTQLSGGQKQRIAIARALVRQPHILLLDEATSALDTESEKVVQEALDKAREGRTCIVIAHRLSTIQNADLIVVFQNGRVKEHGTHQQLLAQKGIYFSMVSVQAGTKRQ

Ratio [2]	Ratio [3]	Ratio [6]	Ratio [10]	Ratio [17]	Ratio [18]	SMILES	IC50 [1] [µM]	IC50 [4] [µM]	IC50 [5] [µM]	IC50 [7] [µM]	IC50 [8] [µM]	IC50 [9] [µM]	IC50 [11] [µM]	IC50 [12] [µM]	Ratio IC50 [13]	CI [14]	Ratio IC50 [15]	Ratio IC50 [16]	Ratio IC50 [19]
22.82	2.7	30.97	2.64			C/C1=C\[C@@H]2[C@H](CC[C@]3(CO3)[C@H](OC(=O)c3ccc(-c4ccccc4)cc3)[C@H]3[C@@H](OC(=O)c4ccc(-c5ccccc5)cc4)[C@@H](C)C[C@]3(O)C1=O)C2(C)C	> 100	74.3	> 100	> 100	> 100	> 100	> 100	> 100	<0.74				
38.72	2.52	38.97	3.39			C/C1=C\[C@@H]2[C@H](CC[C@]3(CO3)[C@H](OC(=O)c3ccc(C(F)(F)F)cc3)[C@H]3[C@@H](OC(=O)c4ccc(C(F)(F)F)cc4)[C@@H](C)C[C@]3(O)C1=O)C2(C)C	> 100	> 100	> 100	> 100	> 100	> 100	> 100	> 100					
6.09	1.67	42.56	5.5			C/C1=C\[C@@H]2[C@H](CC[C@]3(CO3)[C@H](OC(=O)c3ccco3)[C@H]3[C@@H](OC(=O)c4ccco4)[C@@H](C)C[C@]3(O)C1=O)C2(C)C	> 50	24.8	28.4	> 50	27.8	> 50	> 50	> 50	<0.5	0.053	0.98		
22.36	1.2	31.69	1.64			C/C1=C\[C@@H]2[C@H](CC[C@]3(CO3)[C@H](OC(=O)C34CC5CC(CC(C5)C3)C4)[C@H]3[C@@H](OC(=O)C45CC6CC(CC(C6)C4)C5)[C@@H](C)C[C@]3(O)C1=O)C2(C)C	> 50	> 50	27.6	> 50	> 50	> 50	> 50	> 50			>1.81		
1.71	1.54	10.62	3.54			CCN(CC)C(=O)O[C@@H]1[C@@H]2[C@@H](OC(=O)N(CC)CC)[C@]3(CC[C@H]4[C@@H](/C=C(\C)C(=O)[C@@]2(O)C[C@@H]1C)C4(C)C)CO3	> 100	> 100	> 100	> 100	> 100	> 100	> 100	> 100					
1.22	1.09	1.38	1.42			C/C1=C\[C@@H]2[C@H](CC[C@]3(CO3)[C@H](OC(=O)N3CCOCC3)[C@H]3[C@@H](OC(=O)N4CCOCC4)[C@@H](C)C[C@]3(O)C1=O)C2(C)C	> 100	> 100	> 100	> 100	> 100	> 100	> 100	> 100					
1.22	1.1	18.3	2.26			CO[C@H]1[C@@H]2[C@H](CC[C@]3(CO)O[C@@H]3[C@H]3[C@@H](O)[C@@H](C)C[C@]3(O)C(=O)[C@@H]1C)C2(C)C	> 100	> 100	> 100	> 100	> 100	> 100	> 100	> 100					
39.3	8.25	41.81	11.56	2.83	9.87	CO[C@H]1[C@@H]2[C@H](CC[C@]3(COC(=O)c4ccc(C(F)(F)F)cc4)O[C@@H]3[C@H]3[C@@H](OC(=O)c4ccc(C(F)(F)F)cc4)[C@@H](C)C[C@]3(O)C(=O)[C@@H]1C)C2(C)C		33.3	9.3	48	8.2	50.9		37.6	0.78	0.054	0.88	0.94	
0.51	1.02	11.61	3.81			C/C1=C\[C@@H]2[C@H](CC[C@@](C)(O)[C@H](O)[C@H]3[C@@H](O)[C@@H](C)C[C@]3(O)[C@@H]1O)C2(C)C	> 100	> 100	> 100	> 100	> 100	> 100	> 100	> 100					
0.54	1	0.59	1.11			C/C1=C\[C@@H]2[C@H](CC[C@@](C)(O)[C@H](O)[C@H]3[C@@H](O)[C@@H](C)C[C@]3(O)[C@H]1O)C2(C)C	> 100	> 100	> 100	> 100	> 100	> 100	> 100	> 100					
11.37	2.76	51.34	5.98			CC(=O)O[C@@H]1[C@@H]2[C@@H](OC(C)=O)[C@](C)(OC(C)=O)CC[C@H]3[C@@H](/C=C(\C)[C@H](OC(C)=O)[C@@]2(OC(C)=O)C[C@@H]1C)C3(C)C	51.4	> 100	> 100	> 100	> 100	> 100	49.1	> 100		0.205			0.96
43.35	2.94	71.12	5.78	1.48	2.33	C/C1=C\[C@@H]2[C@H](CC[C@@](C)(O)[C@H](O)[C@H]3[C@@H](OC(=O)c4ccccc4)[C@@H](C)C[C@]3(O)[C@H]1OC(=O)c1ccccc1)C2(C)C	51.2	38.5	30.5	52.4	> 100	50.7	44.9	> 100	<0.39		>3.28	1.03	0.88
5.85	1.5	38.92	3.18			CCO[C@@H]1[C@@H]2C(=O)C(O)(C[C@H](C)[C@@H]2O)/C(C)=C\[C@@H]2[C@H](CC[C@@]1(O)CO)C2(C)C	> 100	> 100	> 100	> 100	> 100	> 100	> 100	> 100					
1.16	1.1	2.07	2.25			CCC(=O)OC[C@]1(O)CC[C@H]2[C@@H](/C=C(\C)C(=O)[C@@]3(O)C[C@H](C)[C@H](OC(=O)CC)[C@@H]3[C@H]1O)C2(C)C	> 100	> 100	> 100	> 100	> 100	> 100	> 100	> 100					
			8.95			COc1ccc(CCN(C)CCCC(C#N)(c2ccc(OC)c(OC)c2)C(C)C)cc1OC (stereo not drawn)													

SMILES	Ratio [2]	Ratio [3]	Ratio [6]	Ratio [10]	Ratio [17]	Ratio [18]	IC50 [1] [µM]	IC50 [4] [µM]	IC50 [5] [µM]	IC50 [7] [µM]	IC50 [8] [µM]	IC50 [9] [µM]	IC50 [11] [µM]	IC50 [12] [µM]	Ratio IC50 [13]	CI [14]	Ratio IC50 [15]	Ratio IC50 [16]	Ratio IC50 [19]
C/C1=C\[C@@H]2[C@H](CC[C@]3(CO3)[C@H](O)[C@H]3[C@@H](O)[C@@H](C)C[C@]3(O)C1=O)C2(C)C	1.15	1.02	1.49	1.05			> 100	> 100	> 100	> 100	> 100	> 100	> 100	> 100					
